Results published in patent US12624044B2, “SMARCA degraders and uses thereof” (Kymera Therapeutics, Inc., priority 2019, dated 2026).

Target: SMARCA2 (Homo sapiens, UniProt P51531)
Assay: MSD SMARCA2 degradation in A549 cell line
Assay type: cell-based
Conditions: 24 h; for Dmax: A549, A549 cells; for DC50: A549 cells, read-out: SMARCA2 MSD A549 degradation 24 h: Average external-Abs DC50
Protocol: Cells were seeded into 96-well plates (A549 cells: 2×10^4 cells/well/100 ul media) abd incubated overnight. The next day, 200 nl compound were added into the intermediate plate with Echo (Labcyte 550) from source plate containing a 3-fold serial dilution from top concentration of 1 mM. The culture medium was changed with 80 ul of fresh medium and 80 ul of 2× compound solution was added into the well to make a final concentration of 1000 nM, 333.3 nM, 111.1 nM, 37.04 nM, 12.35 nM, 4.115 nM, 1.372 nM, 0.457 nM, 0.152 nM and 0 nM (DMSO). The wells were mixed and then incubated for 24 hours. The media was aspirated from the cultures and 60 ul pre-chilled PIPA lysis buffer (Boston BioProducts BP-115D) with protease/phosphatase inhibitor (Roche 05892791001/Roche 04906837001) was added into the well to lyze the cells for 20 minutes at 4° C. The MSD plate (L15XA) was coated with 40 ul cell lysate and incubated at 4° C. overnight. The next day, the plate was washed three times with TBST (CST #9997S), 150 ul/well. The MSD plates was blocked with 150 ul blocking buffer per well and shaked for 1 hr at RT, 600 rpm. The blocking buffer was 3% Blocker A (MSD, R93BA-4) in TBST. The MSD plate was washed three times with 150 ul/well of TBST and 25 ul/well of detection antibody (Rabbit anti-SMARCA2/BRM antibody, 100 μg/ml, ab223735) was added at final concentration of 1 ug/ml diluted in 1% Blocking buffer and shaken for 1 hour at RT, 600 rpm. The MSD plate was washed three times with 150 ul/well of TBST and 25 ul/well of SULFO-TAG anti-rabbit antibody (MSD, R32AB-1) was added at final concentration of 1 ug/ml diluted in 1% Blocking buffer and shaken for 1 hour at RT, 600 rpm. The MSD plate was washed three times with 150 ul/well of TBST and 150 ul/well of 2×MSD reading buffer diluted from 4× (MSD, R92TC-2) with water was added. Lastly, the MSD instrument was read.
The letter codes for the percentage of SMARCA2 degradation after 24 hours (Dmax %) include: A (>90% degradation), B (>70-90% degradation), C (50-70% degradation), and D (<50% degradation).

SMARCA2, sequence (P51531 whole entry): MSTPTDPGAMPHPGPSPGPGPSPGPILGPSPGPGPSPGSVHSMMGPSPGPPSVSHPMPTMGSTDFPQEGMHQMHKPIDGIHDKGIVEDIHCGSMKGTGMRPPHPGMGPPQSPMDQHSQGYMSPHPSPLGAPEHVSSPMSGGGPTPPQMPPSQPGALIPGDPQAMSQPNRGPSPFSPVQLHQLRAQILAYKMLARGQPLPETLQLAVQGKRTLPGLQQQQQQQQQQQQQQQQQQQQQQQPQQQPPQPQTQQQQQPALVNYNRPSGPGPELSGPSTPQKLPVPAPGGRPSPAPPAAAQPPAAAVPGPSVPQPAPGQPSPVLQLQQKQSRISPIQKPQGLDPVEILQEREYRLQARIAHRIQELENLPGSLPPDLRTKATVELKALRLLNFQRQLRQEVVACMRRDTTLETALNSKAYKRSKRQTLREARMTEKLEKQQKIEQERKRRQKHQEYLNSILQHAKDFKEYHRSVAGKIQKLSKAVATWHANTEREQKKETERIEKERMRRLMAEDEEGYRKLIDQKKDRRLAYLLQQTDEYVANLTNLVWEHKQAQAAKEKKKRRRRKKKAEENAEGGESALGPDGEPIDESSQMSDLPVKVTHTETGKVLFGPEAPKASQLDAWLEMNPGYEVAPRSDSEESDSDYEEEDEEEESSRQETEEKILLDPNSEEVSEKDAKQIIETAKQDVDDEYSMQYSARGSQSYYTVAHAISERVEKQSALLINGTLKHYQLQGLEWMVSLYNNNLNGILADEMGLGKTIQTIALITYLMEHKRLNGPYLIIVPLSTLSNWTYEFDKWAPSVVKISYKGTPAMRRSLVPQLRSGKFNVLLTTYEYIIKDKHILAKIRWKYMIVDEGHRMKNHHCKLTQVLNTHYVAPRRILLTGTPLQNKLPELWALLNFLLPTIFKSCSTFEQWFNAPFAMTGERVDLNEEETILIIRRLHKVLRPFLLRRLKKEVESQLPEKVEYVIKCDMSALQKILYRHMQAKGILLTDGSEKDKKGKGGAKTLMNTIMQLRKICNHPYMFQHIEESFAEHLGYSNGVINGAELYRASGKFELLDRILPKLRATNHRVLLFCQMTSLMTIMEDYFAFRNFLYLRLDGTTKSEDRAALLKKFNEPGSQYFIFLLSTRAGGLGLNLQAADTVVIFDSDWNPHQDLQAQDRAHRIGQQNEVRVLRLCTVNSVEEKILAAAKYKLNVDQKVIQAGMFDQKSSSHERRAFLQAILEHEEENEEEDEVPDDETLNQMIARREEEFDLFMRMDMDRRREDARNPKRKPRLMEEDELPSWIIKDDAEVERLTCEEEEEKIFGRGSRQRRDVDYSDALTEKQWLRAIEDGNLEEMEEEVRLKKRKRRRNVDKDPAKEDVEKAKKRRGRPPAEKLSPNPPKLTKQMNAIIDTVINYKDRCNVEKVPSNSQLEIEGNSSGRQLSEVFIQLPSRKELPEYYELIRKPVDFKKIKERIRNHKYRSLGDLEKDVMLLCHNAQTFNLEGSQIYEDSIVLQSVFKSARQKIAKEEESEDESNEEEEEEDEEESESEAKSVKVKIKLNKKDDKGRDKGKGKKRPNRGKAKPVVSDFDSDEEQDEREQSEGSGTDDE

Compound	Dmax [%]	DC50 [nM]
Cn1c(=O)n(C2CCC(=O)NC2=O)c2cccc(CN3CCC(OC4CCN(Cc5ccc(C#Cc6cc(NC(=O)Nc7cc(F)ncc7CO)ccn6)cc5)CC4)CC3)c21 (stereo not drawn) [I-305]	< 50	> 1000
Cc1ncsc1-c1ccc(CNC(=O)[C@@H]2C[C@@H](O)CN2C(=O)[C@@H](NC(=O)[C@H]2CC[C@H](Cc3cnc(N4C5CCC4CN(c4cc(-c6ccccc6O)nnc4N)C5)nc3)CC2)C(C)(C)C)c(C(F)(F)F)c1 [I-422]	> 90	100 to 500
Nc1nnc(-c2ccccc2O)cc1N1CC2CCC(C1)N2c1ncc(C2CCN(CCCCOc3ccc(Oc4ccc(N(Cc5ccccc5)C(=O)CCl)cc4)cc3)CC2)cn1 [I-530]	< 50	> 1000
Cc1ncsc1-c1ccc(CNC(=O)[C@@H]2C[C@@H](O)CN2C(=O)[C@@H](NC(=O)CCCN2CCN(Cc3ccc(-c4cc(-c5ccccc5O)nnc4N)cc3)CC2)C(C)(C)C)cc1 [I-475, (2S,4R)-1-((S)-2-(4-(4-(4-(3-amino-6-(2-hydroxyphenyl)pyridazin-4-yl)benzyl)piperazin-1-yl)butanamido)-3,3-dimethylbutanoyl)-4-hydroxy-N-(4-(4-methylthiazol-5-yl)benzyl)pyrrolidine-2-carboxamide]	< 50	> 1000
Cc1ncsc1-c1ccc(CNC(=O)[C@@H]2C[C@@H](O)CN2C(=O)[C@@H](NC(=O)CCN2CCC[C@@H](Cn3cc(-c4cc(-c5ccccc5O)nnc4N)cn3)C2)C(C)(C)C)cc1 [I-470]	< 50	> 1000
Cc1ncsc1-c1ccc(CNC(=O)[C@@H]2C[C@@H](O)CN2C(=O)[C@@H](NC(=O)[C@H]2CC[C@@H](N3CC(c4cnc(N5C6CCC5CN(c5cc(-c7ccccc7O)nnc5N)C6)nc4)C3)CC2)C(C)(C)C)cc1 [I-436]	> 90	100 to 500
CN(CCCOCCCc1cccc2c1n(C)c(=O)n2C1CCC(=O)NC1=O)Cc1ccc(C#Cc2cc(NC(=O)Nc3cc(F)ncc3CO)ccn2)cc1 (stereo not drawn) [I-304]	< 50	> 1000
Cc1ncsc1-c1ccc(CNC(=O)[C@@H]2C[C@@H](O)CN2C(=O)[C@@H](NC(=O)C2CC3(CCN(Cc4cnc(N5C6CCC5CN(c5cc(-c7ccccc7O)nnc5N)C6)nc4)CC3)C2)C(C)(C)C)cc1 [I-394]	> 90	100 to 500
Nc1nnc(-c2ccccc2O)cc1N1CC2CCC(C1)N2c1ncc(C2CCN(CCCCNC(=O)COc3ccc4c(c3)CCCN4C(=O)CCl)CC2)cn1 [I-528]	< 50	> 1000
Cc1ncsc1-c1ccc(CNC(=O)[C@@H]2C[C@@H](O)CN2C(=O)[C@@H](NC(=O)CCCCCCCNCc2ccc(C#Cc3cc(NC(=O)Nc4cc(F)ncc4CO)ccn3)cc2)C(C)(C)C)cc1 [I-494]	< 50	> 1000
COc1ccccc1-c1cc(N2CC3CCC(C2)N3c2ncc(C3CCN(CCCNC(=O)COc4ccc5c(c4)CCCN5C(=O)CCl)CC3)cn2)c(N)nn1 [I-527]	< 50	> 1000
Cc1ncsc1-c1ccc(CNC(=O)[C@@H]2C[C@@H](O)CN2C(=O)[C@@H](NC(=O)[C@H]2CC[C@@H](Cc3cnc(N4C5CCC4CN(c4cc(-c6ccccc6O)nnc4N)C5)nc3)CC2)C(C)(C)C)c(C(F)(F)F)c1 [I-421]	70 to 90	100 to 500
CN(Cc1cccc(C#Cc2cc(NC(=O)Nc3cc(F)ncc3CO)ccn2)c1)CC1CCN(Cc2cccc3c2n(C)c(=O)n3C2CCC(=O)NC2=O)CC1 (stereo not drawn) [I-316]	< 50	> 1000
Cc1ncsc1-c1ccc(CNC(=O)[C@@H]2C[C@@H](O)CN2C(=O)[C@@H](NC(=O)C2CC3CCC2C[C@H]3c2cnc(N3C4CCC3CN(c3cc(-c5ccccc5O)nnc3N)C4)nc2)C(C)(C)C)c(C(F)(F)F)c1 (stereo partly drawn) [I-442]	50 to 70	501 to 1000
Cc1ncsc1-c1ccc(CNC(=O)[C@@H]2C[C@@H](O)CN2C(=O)[C@@H](NC(=O)CN2CCC(c3cccc(C#Cc4cc(NC(=O)Nc5cc(F)ncc5CO)ccn4)c3)CC2)C(C)(C)C)cc1 [I-498]	< 50	> 1000
